# Experimental data from patent publication US10758534B2 (Vertex Pharmaceuticals Incorporated, priority 2014, dated 2020).
# Molecular target: T1, F508del (Homo sapiens, UniProt P13569, DEL508-508)
# T1 construct: expressed in transfected cells
# Assay: Protocol 2: FRET membrane potential optical assay (VIPR), identification of correction compounds
# Format: cell-based
# Settings: not given
# Procedure, shortened: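 FRET read-out (CC2-DMPE donor, DiSBAC2(3) voltage-sensitive acceptor) of membrane depolarization on VIPR II. Corrector candidates incubated 16 hrs at 37° C. with NIH3T3 cells expressing F508del; temperature correction at 27° C. as positive control; stimulation by 10 μM forskolin, 20 μM genistein, chloride-free gluconate bath.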
# T1 sequence (P13569 with tags, fused parts or gaps DEL508-508): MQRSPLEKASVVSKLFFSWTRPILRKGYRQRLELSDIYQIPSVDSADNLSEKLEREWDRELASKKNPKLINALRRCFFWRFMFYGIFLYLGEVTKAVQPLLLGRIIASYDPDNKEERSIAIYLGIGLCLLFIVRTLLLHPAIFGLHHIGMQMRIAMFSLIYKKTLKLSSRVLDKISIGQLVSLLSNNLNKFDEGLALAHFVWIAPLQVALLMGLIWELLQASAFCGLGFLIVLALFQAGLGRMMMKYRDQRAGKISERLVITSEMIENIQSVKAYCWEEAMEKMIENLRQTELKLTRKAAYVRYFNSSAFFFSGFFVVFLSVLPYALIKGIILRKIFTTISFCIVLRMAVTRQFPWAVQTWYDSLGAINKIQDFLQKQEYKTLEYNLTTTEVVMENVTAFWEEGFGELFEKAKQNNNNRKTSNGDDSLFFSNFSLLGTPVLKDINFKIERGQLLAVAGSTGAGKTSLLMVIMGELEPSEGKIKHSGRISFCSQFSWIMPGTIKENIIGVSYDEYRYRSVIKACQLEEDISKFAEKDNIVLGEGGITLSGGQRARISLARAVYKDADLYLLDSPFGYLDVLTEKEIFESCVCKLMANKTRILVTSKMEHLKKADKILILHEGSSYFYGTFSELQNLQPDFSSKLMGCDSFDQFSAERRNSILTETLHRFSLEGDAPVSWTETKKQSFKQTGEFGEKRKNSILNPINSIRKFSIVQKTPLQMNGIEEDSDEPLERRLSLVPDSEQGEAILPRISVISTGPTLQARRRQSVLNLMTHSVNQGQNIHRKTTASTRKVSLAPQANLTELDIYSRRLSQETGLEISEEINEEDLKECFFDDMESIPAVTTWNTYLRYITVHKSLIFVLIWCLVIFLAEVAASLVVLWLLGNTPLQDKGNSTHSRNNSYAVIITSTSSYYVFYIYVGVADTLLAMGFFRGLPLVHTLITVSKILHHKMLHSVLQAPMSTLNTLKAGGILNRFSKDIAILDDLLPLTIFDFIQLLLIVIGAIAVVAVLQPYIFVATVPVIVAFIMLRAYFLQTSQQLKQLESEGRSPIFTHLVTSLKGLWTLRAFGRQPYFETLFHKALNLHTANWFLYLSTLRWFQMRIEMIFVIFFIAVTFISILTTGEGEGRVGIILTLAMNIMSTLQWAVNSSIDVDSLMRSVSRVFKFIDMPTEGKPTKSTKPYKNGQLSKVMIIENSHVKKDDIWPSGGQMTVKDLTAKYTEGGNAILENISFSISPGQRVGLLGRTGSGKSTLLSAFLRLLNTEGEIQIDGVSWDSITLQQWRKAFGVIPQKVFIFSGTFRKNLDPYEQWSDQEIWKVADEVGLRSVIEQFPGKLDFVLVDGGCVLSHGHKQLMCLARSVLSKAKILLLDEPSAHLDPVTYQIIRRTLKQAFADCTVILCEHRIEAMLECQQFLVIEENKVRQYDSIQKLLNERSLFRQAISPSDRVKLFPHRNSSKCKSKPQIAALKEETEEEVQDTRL
row,Structure (SMILES),EC30 [µM]
1,"[2H]C1([2H])[C@@H](C)CC(C)(C)N1c1nc(-c2cc(F)cc(OCC(C)C)c2)ccc1C(=O)NS(=O)(=O)c1ccccc1 [Compound 2560, N-(benzenesulfonyl)-2-[(3S)-2,2-dideuterio-3,5,5-trimethyl-pyrrolidin-1-yl]-6-(3-fluoro-5-isobutoxy-phenyl)pyridine-3-carboxamide]",< 3

# Same assay, conditions: F508del CFTR modulator activity; compounds of Table 1; read-out: EC30
row,Structure (SMILES),EC30 [µM]
1,"CC(C)COc1cc(F)cc(-c2ccc(C(=O)NS(=O)(=O)c3cccc(N)n3)c(C3CC(C)(C)CC3(C)C)n2)c1 (single isomer, unassigned) [Compound 2374, N-[(6-amino-2-pyridyl)sulfonyl]-6-(3-fluoro-5-isobutoxy-phenyl)-2-(2,2,4,4-tetramethylcyclopentyl)pyridine-3-carboxamide]",< 3
2,"CCOc1cc(C)cc(-c2ccc(C(=O)NS(=O)(=O)c3cccnc3N)c(N3C[C@@H](C)CC3(C)C)n2)n1 [Compound 2256, N-[(2-amino-3-pyridyl)sulfonyl]-6-(6-ethoxy-4-methyl-2-pyridyl)-2-[(4S)-2,2,4-trimethylpyrrolidin-1-yl]pyridine-3-carboxamide]",< 3
3,"COc1cc(-c2ccc(C(=O)NS(=O)(=O)c3ccc[nH]c3=O)c(N3C[C@@H](C)CC3(C)C)n2)ccc1C [Compound 2440, 6-(3-methoxy-4-methyl-phenyl)-N-[(2-oxo-1H-pyridin-3-yl)sulfonyl]-2-[(4S)-2,2,4-trimethylpyrrolidin-1-yl]pyridine-3-carboxamide]",< 3
4,"COc1cccc(-c2cnc(N3CC(C)CC3(C)C)c(C(=O)NS(=O)(=O)c3cccc(N)n3)c2)c1 (stereo not drawn) [Compound 2031, N-[(6-amino-2-pyridyl)sulfonyl]-5-(3-methoxyphenyl)-2-(2,2,4-trimethylpyrrolidin-1-yl)pyridine-3-carboxamide]",< 3
5,"CC1CN(c2ncccc2C(=O)NS(=O)(=O)c2cccc(Oc3ccc(N)cc3)n2)C(C)(C)C1 (stereo not drawn) [Compound 2314, N—[[6-(4-aminophenoxy)-2-pyridyl]sulfonyl]-2-(2,2,4-trimethylpyrrolidin-1-yl)pyridine-3-carboxamide]",3 to 10
6,"CC(C)COc1cc(F)cc(-c2ccc(C(=O)NS(=O)(=O)N3CC[C@@H](O)C3)c(N3C[C@@H](C)CC3(C)C)n2)c1 [Compound 2427, 6-(3-fluoro-5-isobutoxy-phenyl)-N-[(3R)-3-hydroxypyrrolidin-1-yl]sulfonyl-2-[(4S)-2,2,4-trimethylpyrrolidin-1-yl]pyridine-3-carboxamide]",< 3
7,"Cc1cc(-c2ccc(C(=O)NS(=O)(=O)N3CC[C@H](N)C3)c(N3C[C@@H](C)CC3(C)C)n2)ccc1F [Compound 2472, N-[(3S)-3-aminopyrrolidin-1-yl]sulfonyl-6-(4-fluoro-3-methyl-phenyl)-2-[(4S)-2,2,4-trimethylpyrrolidin-1-yl]pyridine-3-carboxamide]",3 to 10
8,"Cc1cc(-c2ccc(C(=O)NS(=O)(=O)c3cccnc3N)c(N3C[C@@H](C)CC3(C)C)n2)ccc1F [Compound 2052, N-[(2-amino-3-pyridyl)sulfonyl]-6-(4-fluoro-3-methyl-phenyl)-2-[(4S)-2,2,4-trimethylpyrrolidin-1-yl]pyridine-3-carboxamide]",< 3
9,"CCOc1cccc(F)c1-c1ccc(C(=O)NS(=O)(=O)c2cccnc2N)c(N2C[C@@H](C)CC2(C)C)n1 [Compound 2103, N-[(2-amino-3-pyridyl)sulfonyl]-6-(2-ethoxy-6-fluoro-phenyl)-2-[(4S)-2,2,4-trimethylpyrrolidin-1-yl]pyridine-3-carboxamide]",< 3
10,"C[C@@H]1CN(c2nc(C3CCC(C(F)(F)F)CC3)ccc2C(=O)NS(=O)(=O)c2cccnc2N)C(C)(C)C1 (single isomer, unassigned) [Compound 2077]",< 3
11,C[C@@H]1CN(c2nc(-n3ccc(-c4ccccc4)n3)ccc2C(=O)NS(=O)(=O)c2cccnc2N)C(C)(C)C1 [Compound 2696],< 3

# Same assay, conditions: Table 3; compounds of Table 1 as modulators of CFTR activity; protocol not stated
row,Structure (SMILES),EC30
1,"Cc1cccc(C)c1Cn1nc(-c2ccc(C(F)F)cc2)cc1C(=O)NS(=O)(=O)c1ccccc1 [Compound 119, N-(benzenesulfonyl)-5-[4-(difluoromethyl)phenyl]-2-[(2,6-dimethylphenyl)methyl]pyrazole-3-carboxamide]",+++ (“+++” means <3 uM)
2,"Cc1cc(C)c(Oc2nc(C)ccc2C(=O)NS(=O)(=O)c2cccc(NCCN)n2)c(C)c1 [Compound 792, N-[[6-(2-aminoethylamino)-2-pyridyl]sulfonyl]-6-methyl-2-(2,4,6-trimethylphenoxy)pyridine-3-carboxamide]",++ (“++” means between 3 uM and 10 uM)
3,"CCOc1ccccc1-c1ccc(C(=O)NS(=O)(=O)c2cccc(N)n2)c(Oc2c(C)cc(C)cc2C)n1 [Compound 250, N-[(6-amino-2-pyridyl)sulfonyl]-6-(2-ethoxyphenyl)-2-(2,4,6-trimethylphenoxy)pyridine-3-carboxamide]",+++ (“+++” means <3 uM)
4,"Cc1cccc(C)c1Cn1nc(-c2ccccc2OC(F)(F)F)cc1C(=O)NS(=O)(=O)c1ccccc1 [Compound 149, N-(benzenesulfonyl)-2-[(2,6-dimethylphenyl)methyl]-5-[2-(trifluoromethoxy)phenyl]pyrazole-3-carboxamide]",+++ (“+++” means <3 uM)
5,"CC(C)Oc1ccc(-c2ccc(C(=O)NS(=O)(=O)c3cccc(N)n3)c(N3CCCC4(CC4)C3)n2)cn1 [Compound 703, N-[(6-amino-2-pyridyl)sulfonyl]-2-(7-azaspiro[2.5]octan-7-yl)-6-(6-isopropoxy-3-pyridyl)pyridine-3-carboxamide]",+++ (“+++” means <3 uM)
6,"Cc1cccc(C)c1Cn1nc(C(C)(C)C)cc1C(=O)NS(=O)(=O)c1ccc(N)cc1 [Compound 81, N-(4-aminophenyl)sulfonyl-5-tert-butyl-2-[(2,6-dimethylphenyl)methyl]pyrazole-3-carboxamide]",+++ (“+++” means <3 uM)
7,"CC(C)Oc1ccc(-c2ccc(C(=O)NS(=O)(=O)c3cccc(N)n3)c(N3C[C@@H]4CC[C@H]3C4)n2)cn1 [Compound 476, N-[(6-amino-2-pyridyl)sulfonyl]-2-[(1R,4S)-3-azabicyclo[2.2.1]heptan-3-yl]-6-(6-isopropoxy-3-pyridyl)pyridine-3-carboxamide]",++ (“++” means between 3 uM and 10 uM)
8,"COc1cccc(-c2ccc(C(=O)NS(=O)(=O)c3cccc(N)n3)c(Oc3c(C)cc(C)cc3C)n2)c1OC [Compound 485, N-[(6-amino-2-pyridyl)sulfonyl]-6-(2,3-dimethoxyphenyl)-2-(2,4,6-trimethylphenoxy)pyridine-3-carboxamide]",+++ (“+++” means <3 uM)
9,"Cc1cccc(C)c1Cn1nc(C(C)(C)C)cc1C(=O)NS(=O)(=O)c1ccccc1F [Compound 57, 5-tert-butyl-2-[(2,6-dimethylphenyl)methyl]-N-(2-fluorophenyl)sulfonyl-pyrazole-3-carboxamide]",+++ (“+++” means <3 uM)
10,"CC(C)COc1ccnc(-c2ccc(C(=O)NS(=O)(=O)c3cccc(N)n3)c(N3[C@H](C)CC[C@@H]3C)n2)c1 [Compound 389, N-[(6-amino-2-pyridyl)sulfonyl]-2-[(2S,5R)-2,5-dimethylpyrrolidin-1-yl]-6-(4-isobutoxy-2-pyridyl)pyridine-3-carboxamide]",+++ (“+++” means <3 uM)
11,"COc1ccccc1CCn1nc(C(C)(C)C)cc1C(=O)NS(=O)(=O)c1ccccc1 [Compound 157, N-(benzenesulfonyl)-5-tert-butyl-2-[2-(2-methoxyphenyl)ethyl]pyrazole-3-carboxamide]",++ (“++” means between 3 uM and 10 uM)
12,"CC(C)COc1cc(F)cc(-c2ccc(C(=O)NS(=O)(=O)c3cccc(N)n3)c(N(C)C(C)C3CC3)n2)c1 (stereo not drawn) [Compound 516, N-[(6-amino-2-pyridyl)sulfonyl]-2-[1-cyclopropylethyl(methyl)amino]-6-(3-fluoro-5-isobutoxy-phenyl)pyridine-3-carboxamide]",+++ (“+++” means <3 uM)
13,"Cc1cc(C)c(Oc2nc(-c3ccc(Cl)cc3)ccc2C(=O)NS(=O)(=O)c2ccc[nH]c2=O)c(C)c1 [Compound 579, 6-(4-chlorophenyl)-N-[(2-oxo-1H-pyridin-3-yl)sulfonyl]-2-(2,4,6-trimethylphenoxy)pyridine-3-carboxamide]",+++ (“+++” means <3 uM)
14,"C[C@@H]1CC[C@H](C)N1c1nc(-c2cc(F)cc(OCC(C)(C)C)c2)ccc1C(=O)NS(=O)(=O)c1ccc[nH]c1=O [Compound 572, 6-[3-(2,2-dimethylpropoxy)-5-fluoro-phenyl]-2-[(2S,5R)-2,5-dimethylpyrrolidin-1-yl]-N-[(2-oxo-1H-pyridin-3-yl)sulfonyl]pyridine-3-carboxamide]",+++ (“+++” means <3 uM)
15,"CC(C)COc1cc(F)cc(-c2ccc(C(=O)NS(=O)(=O)c3ccc[nH]c3=O)c(N3C[C@H](C)CC3(C)C)n2)c1 [Compound 605, 6-(3-fluoro-5-isobutoxy-phenyl)-N-[(2-oxo-1H-pyridin-3-yl)sulfonyl]-2-[(4R)-2,2,4-trimethylpyrrolidin-1-yl]pyridine-3-carboxamide]",+++ (“+++” means <3 uM)
16,"Cc1cc(C)c(Oc2nc(-c3cccc(F)c3)ccc2C(=O)NS(=O)(=O)c2cccc(N)n2)c(C)c1 [Compound 570, N-[(6-amino-2-pyridyl)sulfonyl]-6-(3-fluorophenyl)-2-(2,4,6-trimethylphenoxy)pyridine-3-carboxamide]",+++ (“+++” means <3 uM)
17,"Cc1ccc(-c2nc(C(C)(C)C)ccc2C(=O)NS(=O)(=O)c2cccc(N)n2)cc1 [Compound 58, N-[(6-amino-2-pyridyl)sulfonyl]-6-tert-butyl-2-(p-tolyl)pyridine-3-carboxamide]",++ (“++” means between 3 uM and 10 uM)
18,"Cc1cc(C)c(Cn2c(C(=O)NS(=O)(=O)c3ccncc3)cc3ccccc32)c(C)c1 [Compound 227, N-(4-pyridylsulfonyl)-1-[(2,4,6-trimethylphenyl)methyl]indole-2-carboxamide]",++ (“++” means between 3 uM and 10 uM)
